≈ marks a conversion by molar mass, not a printed value.
Key:
[1] = Solubility of the compound in PBS buffer at pH 7.4 by shake-flask method; assay type: physicochemical
Neuromedin-K receptor [2] = target: T1, Neuromedin-K receptor (Homo sapiens, UniProt P29371)
T1 sequence (P29371 whole entry): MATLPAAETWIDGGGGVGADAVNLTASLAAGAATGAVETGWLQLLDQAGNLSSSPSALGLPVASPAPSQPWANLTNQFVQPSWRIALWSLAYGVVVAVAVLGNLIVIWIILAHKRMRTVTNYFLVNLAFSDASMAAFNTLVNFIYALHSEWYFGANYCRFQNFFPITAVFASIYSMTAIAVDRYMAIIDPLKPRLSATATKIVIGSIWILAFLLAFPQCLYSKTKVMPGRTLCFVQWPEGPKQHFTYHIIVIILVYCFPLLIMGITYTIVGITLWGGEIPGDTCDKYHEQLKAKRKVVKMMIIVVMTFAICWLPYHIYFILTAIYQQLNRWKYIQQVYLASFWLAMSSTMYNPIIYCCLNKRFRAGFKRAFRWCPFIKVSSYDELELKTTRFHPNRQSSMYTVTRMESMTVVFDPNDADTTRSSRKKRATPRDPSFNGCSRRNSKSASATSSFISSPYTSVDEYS

Neuromedin-K receptor [3] = target: T1, Neuromedin-K receptor; assay: biochemical
Description: Displacement of [3H]-SB222200 from recombinant human NK3R expressed in CHO cell membranes after 90 mins by scintillation counting analysis

Cytochrome P450 2C9 = Cytochrome P450 2C9 (Homo sapiens, UniProt P11712); assay: Inhibition of CYP2C9 (unknown origin) by luciferase reporter assay in presence of NADPH regeneration system; assay type: ADME
Sequence of Cytochrome P450 2C9 (P11712 whole entry): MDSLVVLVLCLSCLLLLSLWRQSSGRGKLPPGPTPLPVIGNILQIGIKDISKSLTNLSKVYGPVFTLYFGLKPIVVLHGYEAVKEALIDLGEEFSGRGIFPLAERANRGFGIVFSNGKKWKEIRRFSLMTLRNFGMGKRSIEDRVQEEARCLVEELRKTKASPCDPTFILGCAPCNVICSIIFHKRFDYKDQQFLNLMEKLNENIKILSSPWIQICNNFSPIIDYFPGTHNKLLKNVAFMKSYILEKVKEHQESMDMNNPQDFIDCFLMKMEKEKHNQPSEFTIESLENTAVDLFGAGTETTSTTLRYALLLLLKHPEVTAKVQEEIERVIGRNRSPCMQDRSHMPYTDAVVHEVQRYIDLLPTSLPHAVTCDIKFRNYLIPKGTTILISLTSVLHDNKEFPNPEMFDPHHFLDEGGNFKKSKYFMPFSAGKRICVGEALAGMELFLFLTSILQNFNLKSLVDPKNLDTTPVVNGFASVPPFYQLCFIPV

Cytochrome P450 2D6 = Cytochrome P450 2D6 (Homo sapiens, UniProt P10635); assay: Inhibition of CYP2D6 (unknown origin) by luciferase reporter assay in presence of NADPH regeneration system; assay type: ADME
Sequence of Cytochrome P450 2D6 (P10635 whole entry): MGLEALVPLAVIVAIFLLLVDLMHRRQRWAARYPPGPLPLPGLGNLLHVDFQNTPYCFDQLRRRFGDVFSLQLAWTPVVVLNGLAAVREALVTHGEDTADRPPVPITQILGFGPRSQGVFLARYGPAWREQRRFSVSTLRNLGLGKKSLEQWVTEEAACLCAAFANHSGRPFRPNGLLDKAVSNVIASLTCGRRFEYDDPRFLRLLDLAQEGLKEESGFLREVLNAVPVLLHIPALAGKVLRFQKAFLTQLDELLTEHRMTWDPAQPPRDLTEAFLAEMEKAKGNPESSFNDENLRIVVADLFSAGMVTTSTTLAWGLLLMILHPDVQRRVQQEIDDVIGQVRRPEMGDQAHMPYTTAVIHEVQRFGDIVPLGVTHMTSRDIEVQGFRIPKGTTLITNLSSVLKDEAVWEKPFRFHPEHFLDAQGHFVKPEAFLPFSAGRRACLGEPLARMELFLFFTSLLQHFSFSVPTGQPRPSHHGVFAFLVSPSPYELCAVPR

Cytochrome P450 2C19 = Cytochrome P450 2C19 (Homo sapiens, UniProt P33261); assay: Inhibition of CYP2C19 (unknown origin) by luciferase reporter assay in presence of NADPH regeneration system
Sequence of Cytochrome P450 2C19 (P33261 whole entry): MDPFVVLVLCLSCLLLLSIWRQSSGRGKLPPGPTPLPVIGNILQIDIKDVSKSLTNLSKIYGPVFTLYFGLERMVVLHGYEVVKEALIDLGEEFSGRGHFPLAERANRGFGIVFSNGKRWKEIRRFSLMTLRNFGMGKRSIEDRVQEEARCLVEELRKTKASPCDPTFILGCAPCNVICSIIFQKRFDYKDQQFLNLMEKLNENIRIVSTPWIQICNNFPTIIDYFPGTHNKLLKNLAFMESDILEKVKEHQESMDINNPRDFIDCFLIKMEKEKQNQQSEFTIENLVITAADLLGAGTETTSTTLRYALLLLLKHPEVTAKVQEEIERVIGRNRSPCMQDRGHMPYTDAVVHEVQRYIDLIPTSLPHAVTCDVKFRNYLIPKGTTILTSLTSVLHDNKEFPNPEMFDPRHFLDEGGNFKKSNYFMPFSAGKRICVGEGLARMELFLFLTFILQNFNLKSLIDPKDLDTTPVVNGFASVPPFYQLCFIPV

Cytochrome P450 3A4 = Cytochrome P450 3A4 (Homo sapiens, UniProt P08684); assay: Inhibition of CYP3A4 (unknown origin) by luciferase reporter assay in presence of NADPH regeneration system; assay type: ADME
Sequence of Cytochrome P450 3A4 (P08684 whole entry): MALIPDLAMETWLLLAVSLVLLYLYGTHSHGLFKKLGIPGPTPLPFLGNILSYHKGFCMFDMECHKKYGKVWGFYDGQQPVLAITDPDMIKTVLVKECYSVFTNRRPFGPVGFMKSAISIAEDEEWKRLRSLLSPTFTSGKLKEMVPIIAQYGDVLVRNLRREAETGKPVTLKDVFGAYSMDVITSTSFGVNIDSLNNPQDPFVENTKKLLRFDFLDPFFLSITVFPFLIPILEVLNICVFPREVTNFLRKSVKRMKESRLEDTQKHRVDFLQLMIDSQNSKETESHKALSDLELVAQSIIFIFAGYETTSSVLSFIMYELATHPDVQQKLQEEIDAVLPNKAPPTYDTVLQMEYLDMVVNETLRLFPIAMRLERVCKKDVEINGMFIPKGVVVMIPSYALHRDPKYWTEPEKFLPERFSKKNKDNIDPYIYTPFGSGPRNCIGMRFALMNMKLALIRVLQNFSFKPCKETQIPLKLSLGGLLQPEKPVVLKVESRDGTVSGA

[4] = Lipophilicity, log D of the compound at pH 7.4; assay type: physicochemical; conditions: buffer, read-out: logD
Cytochrome P450 1A2 = target: T2, Cytochrome P450 1A2 (Homo sapiens, UniProt P05177); assay: Inhibition of CYP1A2 (unknown origin) by luciferase reporter assay in presence of NADPH regeneration system; assay type: ADME
T2 sequence (P05177 whole entry): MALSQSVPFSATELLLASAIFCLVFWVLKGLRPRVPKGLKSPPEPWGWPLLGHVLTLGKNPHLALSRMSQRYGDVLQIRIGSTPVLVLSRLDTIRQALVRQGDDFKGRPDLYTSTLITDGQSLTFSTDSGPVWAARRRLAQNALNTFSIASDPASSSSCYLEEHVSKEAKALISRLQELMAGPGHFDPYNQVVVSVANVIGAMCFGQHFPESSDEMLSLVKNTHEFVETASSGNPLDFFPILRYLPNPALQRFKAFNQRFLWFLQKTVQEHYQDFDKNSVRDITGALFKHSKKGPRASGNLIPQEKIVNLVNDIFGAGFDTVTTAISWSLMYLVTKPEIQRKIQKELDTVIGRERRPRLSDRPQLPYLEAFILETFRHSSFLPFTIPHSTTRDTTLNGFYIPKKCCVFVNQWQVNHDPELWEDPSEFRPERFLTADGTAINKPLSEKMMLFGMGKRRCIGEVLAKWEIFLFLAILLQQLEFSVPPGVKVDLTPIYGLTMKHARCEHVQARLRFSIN

Row | Compound | solubility thermodynamic [1] [µM] | IC50 (Neuromedin-K receptor [2]) [µM] | Ki (Neuromedin-K receptor [3]) [µM] | IC50 (Cytochrome P450 2C9) [µM] | IC50 (Cytochrome P450 2D6) [µM] | IC50 (Cytochrome P450 2C19) [µM] | IC50 (Cytochrome P450 3A4) [µM] | logD [4] | IC50 (Cytochrome P450 1A2) [µM]
1 | C[C@H]1c2nnc(-c3ccccn3)n2CCN1C(=O)c1ccc(F)cc1 | ≥ 200 | 7.94 | 7.94 |  |  |  |  |  | 
2 | O=C(c1ccc(-c2ccc(Cl)cc2)cc1)N1CCn2c(nnc2-c2ccccn2)C1 | 5.3 (≈ 2.2 µg/mL) | 3.98 | 5.01 |  |  |  |  |  | 
3 | C[C@@H]1c2nnc(-c3csc(-c4ccccc4)n3)n2CCN1C(=O)c1ccc(F)cc1 | 179 (≈ 75.1 µg/mL) | 0.0158 | 0.0251 | 19 | 54 | 19 | 67 | 3.4 | 25
4 | COc1cccc(C(=O)N2CCn3c(nnc3-c3ccccn3)C2)c1 | 196 (≈ 65.7 µg/mL) | > 31.6 | > 31.6 |  |  |  |  |  | 
5 | Cc1ccnc(-c2nnc3n2CCN(C(=O)c2ccc(F)cc2)C3)c1 | ≥ 200 | 6.31 | 6.31 |  |  |  |  |  | 
6 | O=C(c1cccc(F)c1)N1CCn2c(nnc2-c2ccccn2)C1 | 199 (≈ 64.3 µg/mL) | 6.31 | 5.01 |  |  |  |  |  | 
7 | O=C(c1ccc(Cc2ccccc2)cc1)N1CCn2c(nnc2-c2ccccn2)C1 | 169 (≈ 66.8 µg/mL) | > 31.6 | > 31.6 |  |  |  |  |  | 
8 | CC(C)c1nc(-c2nnc3n2CCN(C(=O)c2ccc(-c4cccs4)cc2)[C@@H]3C)cs1 | 25 (≈ 11.2 µg/mL) | 0.00398 | 0.00251 | 4 | 27 | 12 | 35 | 4.4 | 17
9 | Cc1cccc(-c2nnc3n2CCN(C(=O)c2ccc(F)cc2)C3)n1 | ≥ 200 | 0.501 | 0.501 | > 100 | > 100 | 48 | > 100 | 1.4 | 69
10 | O=C(c1cc(-c2ccc(Cl)cc2)n[nH]1)N1CCn2c(nnc2-c2ccccn2)C1 | 1.4 (≈ 0.568 µg/mL) | 1.58 | 1.58 |  |  |  |  |  | 
11 | O=C(c1ccccc1F)N1CCn2c(nnc2-c2ccccn2)C1 | ≥ 200 | > 31.6 | > 31.6 |  |  |  |  |  | 
12 | Cc1csc(-c2nnc3n2CCN(C(=O)c2ccc(-c4cccs4)cc2)[C@@H]3C)n1 | 50 (≈ 21.1 µg/mL) |  | 0.00631 | 8 | 42 | 18 | 11 | 2.9 | 8
13 | COc1ccc(-c2ccc(C(=O)N3CCn4c(nnc4-c4ccccn4)C3)cc2)cc1 | 6.4 (≈ 2.63 µg/mL) | > 31.6 | > 31.6 |  |  |  |  |  | 
14 | Cc1ccc(-c2ccc(C(=O)N3CCn4c(nnc4-c4ccccn4)C3)cc2)o1 | 71 (≈ 27.4 µg/mL) | 10 | 15.8 |  |  |  |  |  | 
15 | Cc1ccc(-c2nnc3n2CCN(C(=O)c2ccc(F)cc2)C3)nc1 | ≥ 200 | 2.51 | 1.58 |  |  |  |  |  | 
16 | O=C(c1ccc(F)cc1)N1CCn2c(nnc2-c2cccc(C(F)(F)F)n2)C1 | 193 (≈ 75.5 µg/mL) | 0.398 | 0.398 | > 100 | > 100 | > 100 | > 100 |  | 21
17 | Cc1cccc(-c2nnc3n2CCN(C(=O)c2ccc(F)cc2)[C@@H]3C)n1 | 197 (≈ 69.2 µg/mL) | 0.0794 | 0.0631 |  |  |  |  | 1.6 | 
18 | C[C@@H]1c2nnc(-c3csc(C(F)(F)F)n3)n2CCN1C(=O)c1ccc(-c2cccs2)cc1 | 11 (≈ 5.23 µg/mL) | 0.0631 | 0.0794 | 5 | > 100 | 18 | > 100 | 4.1 | 8
19 | Cc1cccc(-c2nnc3n2CCN(C(=O)c2ccc(-c4cccs4)cc2)[C@@H]3C)n1 | 110 (≈ 45.7 µg/mL) | 0.01 |  | 18 | 86 | 26 | 45 | 3.4 | 57
20 | O=C(c1ccc(-c2ccccc2)cc1)N1CCn2c(nnc2-c2ccccn2)C1 | 28 (≈ 10.7 µg/mL) | 1.58 | 1.26 |  |  |  |  |  | 
21 | O=C(c1ccc(-c2ccc(F)cc2)cc1)N1CCn2c(nnc2-c2ccccn2)C1 | 10 (≈ 3.99 µg/mL) | 1.58 | 2 |  |  |  |  |  | 
22 | Cc1nc(-c2nnc3n2CCN(C(=O)c2ccc(-c4cccs4)cc2)[C@H]3C)cs1 |  |  |  |  |  |  |  | 3.1 | 
23 | Cc1cncc(-c2nnc3n2CCN(C(=O)c2ccc(-c4cccs4)cc2)[C@@H]3C)n1 | 160 (≈ 66.6 µg/mL) | 0.02 | 0.0126 | 17 | > 100 | 39 | 2 | 2.7 | 50
24 | COc1ccc(C(=O)N2CCn3c(nnc3-c3ccccn3)C2)cc1 | 194 (≈ 65.1 µg/mL) | > 31.6 | > 31.6 |  |  |  |  |  | 
25 | C[C@@H]1c2nnc(-c3ccccn3)n2CCN1C(=O)c1ccc(F)cc1 | ≥ 200 | 0.794 | 0.794 |  |  |  |  |  | 
26 | O=C(c1ccc(-c2cccs2)cc1)N1CCn2c(nnc2-c2ccccn2)C1 | 12 (≈ 4.65 µg/mL) | 0.631 | 0.501 |  |  |  |  |  | 
27 | Cc1nc(-c2nnc3n2CCN(C(=O)c2ccc(F)cc2)[C@@H]3C)cs1 | ≥ 200 |  |  | 56 | > 100 | 44 | 63 | 1.3 | > 100
28 | COc1ccccc1C(=O)N1CCn2c(nnc2-c2ccccn2)C1 | ≥ 200 | > 31.6 | > 31.6 |  |  |  |  |  | 
29 | Cc1cccnc1-c1nnc2n1CCN(C(=O)c1ccc(F)cc1)C2 | ≥ 200 | > 31.6 | > 31.6 |  |  |  |  |  | 

Reference: ChEMBL document CHEMBL3421625, “Discovery and optimization of novel antagonists to the human neurokinin-3 receptor for the treatment of sex-hormone disorders (Part I)” (J Med Chem, 2015)
